Data published in the NIST ThermoML archive (doi:10.1016/j.jct.2012.11.032).
Numbers after ± are expanded uncertainties.

Assay: xn = mol fraction of the nth substance listed
Details: 101 kPa, Liquid; for speed of sound: Sing-around technique in a fixed-path interferometer; for mass density: Vibrating tube method

CCCCCCCCCCCC[n+]1ccn(C)c1.[Cl-] [1-dodecyl-3-methylimidazolium chloride] + O
Details	mass density [kg/m3]	speed of sound [m/s]
283 K, x1 = 2.7e-05	999.688 ± 0.1	–
283 K, x1 = 3e-05	999.704 ± 0.1	–
283 K, x1 = 4.8e-05	999.71 ± 0.1	–
283 K, x1 = 7.4e-05	999.71 ± 0.1	–
283 K, x1 = 9.4e-05	999.705 ± 0.1	–
283 K, x1 = 0.000109	999.71 ± 0.1	–
283 K, x1 = 0.000129	999.718 ± 0.1	–
283 K, x1 = 0.000145	999.717 ± 0.1	–
283 K, x1 = 0.000163	999.735 ± 0.1	–
283 K, x1 = 0.000181	999.724 ± 0.1	–
283 K, x1 = 0.000208	999.73 ± 0.1	–
283 K, x1 = 0.000234	999.729 ± 0.1	–
283 K, x1 = 0.000248	999.744 ± 0.1	–
283 K, x1 = 0.000273	999.743 ± 0.1	–
283 K, x1 = 0.000286	999.744 ± 0.1	–
283 K, x1 = 0.000302	999.732 ± 0.1	–
283 K, x1 = 0.000319	999.749 ± 0.1	–
283 K, x1 = 0.000341	999.737 ± 0.1	–
283 K, x1 = 0.000384	999.728 ± 0.1	–
283 K, x1 = 0.000407	999.721 ± 0.1	–
283 K, x1 = 0.000428	999.712 ± 0.1	–
283 K, x1 = 0.0027	–	1448.4 ± 1.2
283 K, x1 = 0.003	–	1448.5 ± 1.2
283 K, x1 = 0.0048	–	1448.8 ± 1.2
283 K, x1 = 0.0074	–	1449.3 ± 1.2
283 K, x1 = 0.0094	–	1449.7 ± 1.2
283 K, x1 = 0.0109	–	1449.9 ± 1.2
283 K, x1 = 0.0129	–	1450.2 ± 1.2
283 K, x1 = 0.0145	–	1450.5 ± 1.2
283 K, x1 = 0.0163	–	1450.8 ± 1.2
283 K, x1 = 0.0181	–	1451.2 ± 1.2
283 K, x1 = 0.0208	–	1451.7 ± 1.2
283 K, x1 = 0.0234	–	1452 ± 1.2
283 K, x1 = 0.0248	–	1452.2 ± 1.2
283 K, x1 = 0.0273	–	1452.6 ± 1.2
283 K, x1 = 0.0286	–	1452.7 ± 1.2
283 K, x1 = 0.0302	–	1452.8 ± 1.2
283 K, x1 = 0.0319	–	1453.1 ± 1.2
283 K, x1 = 0.0341	–	1453.5 ± 1.2
283 K, x1 = 0.0384	–	1453.5 ± 1.2
283 K, x1 = 0.0407	–	1453.7 ± 1.2
283 K, x1 = 0.0428	–	1453.7 ± 1.2
288 K, x1 = 2.7e-05	999.099 ± 0.1	–
288 K, x1 = 3e-05	999.118 ± 0.1	–
288 K, x1 = 4.8e-05	999.119 ± 0.1	–
288 K, x1 = 7.4e-05	999.115 ± 0.1	–
288 K, x1 = 9.4e-05	999.109 ± 0.1	–
288 K, x1 = 0.000109	999.114 ± 0.1	–
288 K, x1 = 0.000129	999.12 ± 0.1	–
288 K, x1 = 0.000145	999.116 ± 0.1	–
288 K, x1 = 0.000163	999.133 ± 0.1	–
288 K, x1 = 0.000181	999.119 ± 0.1	–
288 K, x1 = 0.000208	999.122 ± 0.1	–
288 K, x1 = 0.000234	999.12 ± 0.1	–
288 K, x1 = 0.000248	999.133 ± 0.1	–
288 K, x1 = 0.000273	999.127 ± 0.1	–
288 K, x1 = 0.000286	999.125 ± 0.1	–
288 K, x1 = 0.000302	999.113 ± 0.1	–
288 K, x1 = 0.000319	999.128 ± 0.1	–
288 K, x1 = 0.000341	999.116 ± 0.1	–
288 K, x1 = 0.000384	999.108 ± 0.1	–
288 K, x1 = 0.000407	999.096 ± 0.1	–
288 K, x1 = 0.000428	999.082 ± 0.1	–
288 K, x1 = 0.0027	–	1466.7 ± 1.2
288 K, x1 = 0.003	–	1466.8 ± 1.2
288 K, x1 = 0.0048	–	1467.1 ± 1.2
288 K, x1 = 0.0074	–	1467.6 ± 1.2
288 K, x1 = 0.0094	–	1467.9 ± 1.2
288 K, x1 = 0.0109	–	1468.1 ± 1.2
288 K, x1 = 0.0129	–	1468.4 ± 1.2
288 K, x1 = 0.0145	–	1468.6 ± 1.2
288 K, x1 = 0.0163	–	1468.9 ± 1.2
288 K, x1 = 0.0181	–	1469.2 ± 1.2
288 K, x1 = 0.0208	–	1469.7 ± 1.2
288 K, x1 = 0.0234	–	1470 ± 1.2
288 K, x1 = 0.0248	–	1470.2 ± 1.2
288 K, x1 = 0.0273	–	1470.5 ± 1.2
288 K, x1 = 0.0286	–	1470.6 ± 1.2
288 K, x1 = 0.0302	–	1470.7 ± 1.2
288 K, x1 = 0.0319	–	1470.9 ± 1.2
288 K, x1 = 0.0341	–	1471 ± 1.2
288 K, x1 = 0.0384	–	1471 ± 1.2
288 K, x1 = 0.0407	–	1471.2 ± 1.2
288 K, x1 = 0.0428	–	1471.2 ± 1.2
293 K, x1 = 2.7e-05	998.213 ± 0.1	–
293 K, x1 = 3e-05	998.232 ± 0.1	–
293 K, x1 = 4.8e-05	998.233 ± 0.1	–
293 K, x1 = 7.4e-05	998.224 ± 0.1	–
293 K, x1 = 9.4e-05	998.217 ± 0.1	–
293 K, x1 = 0.000109	998.222 ± 0.1	–
293 K, x1 = 0.000129	998.227 ± 0.1	–
293 K, x1 = 0.000145	998.219 ± 0.1	–
293 K, x1 = 0.000163	998.236 ± 0.1	–
293 K, x1 = 0.000181	998.221 ± 0.1	–
293 K, x1 = 0.000208	998.22 ± 0.1	–
293 K, x1 = 0.000234	998.218 ± 0.1	–
293 K, x1 = 0.000248	998.227 ± 0.1	–
293 K, x1 = 0.000273	998.218 ± 0.1	–
293 K, x1 = 0.000286	998.214 ± 0.1	–
293 K, x1 = 0.000302	998.2 ± 0.1	–
293 K, x1 = 0.000319	998.213 ± 0.1	–
293 K, x1 = 0.000341	998.199 ± 0.1	–
293 K, x1 = 0.000384	998.191 ± 0.1	–
293 K, x1 = 0.000407	998.175 ± 0.1	–
293 K, x1 = 0.000428	998.16 ± 0.1	–
293 K, x1 = 0.0027	–	1482.9 ± 1.2
293 K, x1 = 0.003	–	1483 ± 1.2
293 K, x1 = 0.0048	–	1483.3 ± 1.2
293 K, x1 = 0.0074	–	1483.7 ± 1.2
293 K, x1 = 0.0094	–	1484 ± 1.2
293 K, x1 = 0.0109	–	1484.2 ± 1.2
293 K, x1 = 0.0129	–	1484.5 ± 1.2
293 K, x1 = 0.0145	–	1484.7 ± 1.2
293 K, x1 = 0.0163	–	1485 ± 1.2
293 K, x1 = 0.0181	–	1485.2 ± 1.2
293 K, x1 = 0.0208	–	1485.6 ± 1.2
293 K, x1 = 0.0234	–	1485.9 ± 1.2
293 K, x1 = 0.0248	–	1486 ± 1.2
293 K, x1 = 0.0273	–	1486.3 ± 1.2
293 K, x1 = 0.0286	–	1486.4 ± 1.2
293 K, x1 = 0.0302	–	1486.5 ± 1.2
293 K, x1 = 0.0319	–	1486.6 ± 1.2
293 K, x1 = 0.0341	–	1486.7 ± 1.2
293 K, x1 = 0.0384	–	1486.7 ± 1.2
293 K, x1 = 0.0407	–	1486.9 ± 1.2
293 K, x1 = 0.0428	–	1486.9 ± 1.2
298 K, x1 = 0.0027	–	1497.1 ± 1.2
298 K, x1 = 0.003	–	1497.2 ± 1.2
298 K, x1 = 0.0048	–	1497.4 ± 1.2
298 K, x1 = 0.0074	–	1497.8 ± 1.2
298 K, x1 = 0.0094	–	1498.1 ± 1.2
298 K, x1 = 0.0109	–	1498.3 ± 1.2
298 K, x1 = 0.0129	–	1498.5 ± 1.2
298 K, x1 = 0.0145	–	1498.7 ± 1.2
298 K, x1 = 0.0163	–	1499 ± 1.2
298 K, x1 = 0.0181	–	1499.2 ± 1.2
298 K, x1 = 0.0208	–	1499.6 ± 1.2
298 K, x1 = 0.0234	–	1499.8 ± 1.2
298 K, x1 = 0.0248	–	1500 ± 1.2
298 K, x1 = 0.0273	–	1500.2 ± 1.2
298 K, x1 = 0.0286	–	1500.3 ± 1.2
298 K, x1 = 0.0302	–	1500.3 ± 1.2
298 K, x1 = 0.0319	–	1500.5 ± 1.2
298 K, x1 = 0.0341	–	1500.5 ± 1.2
298 K, x1 = 0.0384	–	1500.5 ± 1.2
298 K, x1 = 0.0407	–	1500.7 ± 1.2
